{
  "source": "patent US20250281607A1",
  "about": "“MEDICAMENT FOR TREATMENT AND/OR PREVENTION OF CANCER” (TORAY INDUSTRIES, INC., priority 2021, published 2025)",
  "key": {"[1]": {"test_system": "prostate cancer cell line DU145", "experiment": "THP-1-mediated phagocytic activity against DU145 (Example 2)", "format": "cell-based, human", "conditions": "cells cultured 2 days with drug at 250 nM, then anti-CAPRIN-1 humanized antibody #1 5 μg/mL, FIG. 1", "description": "(§1) Specifically, in each combination test group (a trametinib combination test group, a fluorouracil combination test group and an irinotecan combination test group), the indicated drug used in combination was applied to human cancer cells, and then the cancer cells were cocultured with human monocytic cells (THP-1) in the presence of the anti-CAPRIN-1 antibody, and the antibody-mediated phagocytic activity against the cancer cells by THP-1 was evaluated. The human-derived cancer cells used were melanoma cell line A375 (used only in the trametinib combination test group), colon cancer cell line HCT116, prostate cancer cell line DU145 (used only in the trametinib combination test group), and lung cancer cell line A549 (used only in the trametinib combination test group). […]\n(§2) Each cancer cell line after the culture was dissociated with TrypLE Express (Thermo), and the cancer cells were stained by the addition of calcein-AM at a final concentration of 0.02 μg/mL and incubation at 37° C. for 30 minutes. […] Further, dead cells were stained with propidium iodide (PI) (final concentration: 0.1 μg/mL), followed by the measurement of fluorescence from the cells by flow cytometry. […] Thus, the phagocytic activity in this evaluation system was calculated as the ratio (%) of APC-positive/calcein-AM-positive cells to the whole calcein-AM-positive population."}, "[2]": {"test_system": "colon cancer cell line HCT116", "experiment": "THP-1-mediated phagocytic activity against HCT116 (Example 2)", "format": "cell-based, human", "conditions": "cells cultured 2 days with drug at 50 nM, then anti-CAPRIN-1 humanized antibody #1 5 μg/mL, FIG. 1, 2", "description": "as §1, with “group). On a 6-well plate, the human-derived cancer cells were cultured for 2 days in the presence of trametinib for the trametinib combination test group, and cultured for 2 days in the presence of the each drug used in combination for the fluorouracil combination test group and the irinotecan combination test group. The concentration of the drug used in combination was set to a concentration that decreased the proliferation rate of the cancer cells by about half at the completion of culture.” for “group).”\nas §2"}, "[3]": {"conditions": "trametinib in itself (therefore also used as DMSO solvate); cited from earlier work"}, "[4]": {"test_system": "melanoma cell line A375", "experiment": "THP-1-mediated phagocytic activity against A375 (Example 2)", "format": "cell-based, human", "conditions": "cells cultured 2 days with drug at 50 nM, then anti-CAPRIN-1 humanized antibody #1 5 μg/mL, FIG. 1", "description": "as §1, §2"}, "[5]": {"test_system": "lung cancer cell line A549", "experiment": "THP-1-mediated phagocytic activity against A549 (Example 2)", "format": "cell-based, human", "conditions": "cells cultured 2 days with drug at 250 nM, then anti-CAPRIN-1 humanized antibody #1 5 μg/mL, FIG. 1", "description": "as §1, §2"}},
  "data": [
    {"smiles": "CC(=O)Nc1cccc(-n2c(=O)n(C3CC3)c(=O)c3c(Nc4ccc(I)cc4F)n(C)c(=O)c(C)c32)c1", "note": "[trametinib, N-[3-[3-cyclopropyl-5-(2-fluoro-4-iodoanilino)-6,8-dimethyl-2,4,7-trioxopyrido[4,3-d]pyrimidin-1-yl]phenyl]acetamide]", "values": [
      {"measurement": "phagocytic activity against cancer cells", "setting": "[1]", "result": 9, "unit": "%"},
      {"measurement": "phagocytic activity against cancer cells", "setting": "[2]", "result": 45, "unit": "%"},
      {"measurement": "solubility", "setting": "[3]", "result": "poorly soluble"},
      {"measurement": "phagocytic activity against cancer cells", "setting": "[4]", "result": 49, "unit": "%"},
      {"measurement": "phagocytic activity against cancer cells", "setting": "[5]", "result": 7, "unit": "%"}
    ]}
  ]
}
